≈ marks a conversion by molar mass, not a printed value.
What was measured:
BACE1 [1] = target: T1, BACE1 (Homo sapiens, UniProt P56817); assay: In vitro BACE1 enzyme inhibitory assay (fluorescence); format: biochemical; conditions: for IC50: 60 min, 25 °C, pH 4.5, mean ± SD of three experiments, read-out: IC50 (mean ± SD) against BACE1
T1 construct: purchased Invitrogen (Pan Vera, Madison, WI, USA)
Description: Enzyme assays for BACE1, TACE, chymotrypsin, trypsin, and elastase were carried out according to previously described methods [27]. Briefly, reaction mixtures containing human recombinant BACE1 (1.0 U/mL), a specific substrate (Rh-[sequence]-Quencher in 50 mM ammonium bicarbonate), and samples dissolved in an assay buffer (50 mM sodium acetate, pH 4.5) were incubated for 60 min at 25 °C in well plates. […] The inhibition ratio was obtained using the following equation:Inhibition (%) = [1 − (S − S0)/(C − C0)] × 100 where C was the fluorescence of control (enzyme, assay buffer, and substrate) after 60 min of incubation, C0 was the fluorescence of control at time 0, S was the fluorescence of tested samples (enzyme, sample solution, and substrate) after 60 min of incubation, and S0 was the fluorescence of the tested samples at time 0.

BACE1 [2] = target: T1, BACE1; assay: BACE1 inhibition kinetics (Dixon and Lineweaver–Burk plots); format: biochemical; conditions: for Inhibition Mode: Dixon and Lineweaver–Burk plots; for Ki: Dixon plot
Description: The dissociation constant (Ki) was obtained by Dixon plot and maximum reaction velocity (Vmax) and Michaelis–Menten constant (Km) values were determined by Lineweaver–Burk plot using SigmaPlot™ version 12.3 (Systat Software, Inc., San Jose, CA, USA).
The type of inhibition and kinetic analysis was determined using a Michaelis–Menten curve, Dixon plot, and Lineweaver–Burk plot (Figure 2). The three lines of the Dixon plots intersected on the x-axis of the same plot (Figure 2b,e,h). […] This pattern indicated non-competitive inhibitory activity against BACE1, thereby interacting with locations other than the active binding site for these compounds. For noncompetitive inhibition of enzymes, the Ki value of inhibitor is essentially the same numerical value as the IC50 [29].

human recombinant TACE = system: T2, human recombinant TACE; assay: TACE (α-secretase) enzyme inhibitory assay; format: biochemical
T2 construct: purchased R&D Systems (Minneapolis, MN, USA)
Description: A human recombinant TACE (0.1 ppm in 25 mM Tris buffer), the substrate (APP peptide […] using EDANS/DABCYL), and samples were dissolved in an assay buffer, which were then combined and incubated for 60 min in the dark at 25 °C. The increase in fluorescence intensity produced by substrate hydrolysis was measured by using a microplate reader with excitation and emission wavelengths of 320 and 405 nm, respectively.

trypsin = assay: Trypsin absorbance inhibition assay; format: biochemical
Description: (§1) Absorbance assays for trypsin, chymotrypsin, and elastase were estimated using N-benzoyl-ʟ-Arg-pNA, N-benzoyl-ʟ-Tyr-pNA, and N-succinyl-Ala-Ala-Ala-pNA as substrates, respectively. Enzyme, Tris-HCl buffer (0.05 M, in 0.02 M CaCl2, pH 8.2), and tested samples were incubated for 10 min at 25 °C then added to the substrate for 30 min at 37 °C. The absorbance was recorded at 410 nm. The inhibition ratio was obtained using the following equation:Inhibition (%) = {[1 − (A − B)]/control} × 100 where A was the absorbance of control (enzyme, assay buffer, and substrate) after 60 min of incubation, and B was the absorbance of the tested sample (assay buffer and sample solution) after 60 min of incubation.

chymotrypsin = system: T3, chymotrypsin; assay: Chymotrypsin absorbance inhibition assay; format: biochemical
T3 construct: purchased Sigma-Aldrich (St. Louis, MO, USA)
Description: as §1

elastase = system: T4, elastase; assay: Elastase absorbance inhibition assay; format: biochemical
T4 construct: purchased Sigma-Aldrich (St. Louis, MO, USA)
Description: as §1

[3] = Physicochemical properties for BBB permeability prediction; conditions: inferred from MW, PSA and clog P
Source text: However, few BACE1 inhibitors have been marketed to treat AD due to the difficulty in developing therapeutic agents that can efficiently cross the BBB and reach appropriate concentrations in the cerebral parenchyma, and, moreover, can do so without side effects. Recently, QSAR study approaches have been used to generate predictive models for BBB permeability. […] Cardamonin has a MW of 270.28, a PSA value calculated as 66.76, and a clog P of 4.54, obtained by determining the partition coefficient between n-octanol and water.

HIV-1 protease = system: HIV-1 protease; set-up: method as in earlier work; conditions: cited from earlier work
[4] = set-up: method as in PMID 28271112; conditions: calculated; in Å2 (unit assumed); cited from earlier work
[5] = set-up: method as in PMID 29066742; conditions: 10 mg/kg, 30 weeks; cited from earlier work
BBB = conditions: in vitro study; cited from earlier work
[6] = system: rat model of global cerebral ischemia-reperfusion; conditions: oral, 10 mg/kg, 7 days; cited from earlier work
[7] = system: intracerebroventricular Aβ25–35-injected mice; conditions: oral, 20 mg/kg, 8 days; cited from earlier work
[8] = system: APP/PS1 transgenic mouse model; conditions: 40 mg/kg, 3-month period; cited from earlier work
Wister rats = conditions: 100 mg/kg, 7 days; cited from earlier work

T1 sequence (P56817 46-501): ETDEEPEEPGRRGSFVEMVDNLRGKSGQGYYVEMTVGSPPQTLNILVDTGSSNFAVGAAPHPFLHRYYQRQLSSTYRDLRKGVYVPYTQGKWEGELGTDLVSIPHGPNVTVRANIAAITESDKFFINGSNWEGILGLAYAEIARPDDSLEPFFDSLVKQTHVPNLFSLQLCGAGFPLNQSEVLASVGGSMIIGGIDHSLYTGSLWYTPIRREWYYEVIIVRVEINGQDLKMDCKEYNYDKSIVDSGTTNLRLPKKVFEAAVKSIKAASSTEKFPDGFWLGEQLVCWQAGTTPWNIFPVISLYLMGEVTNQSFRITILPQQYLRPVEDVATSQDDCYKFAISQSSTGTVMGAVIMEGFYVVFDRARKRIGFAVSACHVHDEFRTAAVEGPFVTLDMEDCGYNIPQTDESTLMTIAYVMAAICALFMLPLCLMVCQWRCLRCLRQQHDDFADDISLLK

SMILES | IC50 (BACE1 [1]) | Inhibition Mode (BACE1 [2]) | Ki (BACE1 [2]) | Inhibitory activity (%) TACE (human recombinant TACE; sample 100 μM) | Inhibitory activity (%) Trypsin (trypsin; sample 100 μM) | Inhibitory activity (%) Chymotrypsin (chymotrypsin; sample 100 μM) | Inhibitory activity (%) Elastase (elastase; sample 100 μM) | IC50 HIV-1 protease activity (HIV-1 protease) | Inhibitory activity (%) TACE (human recombinant TACE; sample 10 μM) | Inhibitory activity (%) Trypsin (trypsin; sample 10 μM) | Inhibitory activity (%) Chymotrypsin (chymotrypsin; sample 10 μM) | Inhibitory activity (%) Elastase (elastase; sample 10 μM) | Toxicity or mutagenic effects after oral administration (Wister rats) | other results
COc1cc(O)cc(O)c1C(=O)/C=C/c1ccccc1 [Cardamonin, 2′,4′-dihydroxy-6′-methoxychalcone] | 4.35 ± 0.38 µM | Noncompetitive | 5.1 µM | 2.69 ± 1.44% | 3.74 ± 0.53% | 4.23 ± 0.55% | 1.41 ± 0.19% | 31.0 µg/mL (≈ 115 µM) | – | – | – | – | – | BACE1 IC50 relative to resveratrol (BACE1 [1]; comparison of IC50 values): three-fold higher; BACE1 inhibition relative to pinocembrin and pinostrobin (BACE1 [1]; comparison of IC50 values): six-fold more effective; Inhibitory activity (%) TACE (human recombinant TACE; sample 50 μM): 1.38 ± 0.36%; Inhibitory activity (%) Trypsin (trypsin; sample 50 μM): 1.13 ± 0.18%; Inhibitory activity (%) Chymotrypsin (chymotrypsin; sample 50 μM): 6.20 ± 0.41%; Inhibitory activity (%) Elastase (elastase; sample 50 μM): 2.29 ± 0.41%; Predicted BBB crossing [3]: predicted to cross the BBB; polar surface area (PSA) [4]: 66.76; Toxicity after chronic oral administration [5]: did not elicit any apparent toxicity
O=C1CC(c2ccccc2)Oc2cc(O)cc(O)c21 (centres unmarked) [Pinocembrin, 5,7-dihydroxyflavanone] | 27 ± 2.12 µM | Noncompetitive | 29.3 µM | 6.95 ± 1.52% | 4.96 ± 0.27% | 8.61 ± 1.09% | 2.56 ± 0.08% | > 100 µg/mL | 5.15 ± 0.98% | 4.35 ± 0.26% | 7.18 ± 1.87% | 3.24 ± 0.19% | did not induce any toxicity or mutagenic effects | BBB crossing in vitro (BBB): could cross the BBB by passive transport partly through P-glycoprotein; Effect on hippocampal inflammation, oxidative stress and apoptosis [6]: suppressed hippocampal inflammation, oxidative stress, and apoptosis; Effect on cognitive impairment [7]: significantly improved cognitive impairment; Effect on cognitive deficits and neurovascular unit [8]: attenuated cognitive deficits and protected the neurovascular unit
COc1cc(O)c2c(c1)OC(c1ccccc1)CC2=O (centres unmarked) [Pinostrobin, 5-hydroxy-7methoxyflavanone] | 28.4 ± 1.96 µM | Noncompetitive | 30.9 µM | 9.19 ± 1.20% | 1.52 ± 0.05% | 5.41 ± 0.49% | 2.63 ± 0.37% | > 100 µg/mL | 8.53 ± 1.05% | 3.19 ± 0.16% | 3.29 ± 0.25% | 5.21 ± 0.41% | did not induce any toxicity or mutagenic effects | –

From paper PMC6471523, “Biological Evaluation and Docking Analysis of Potent BACE1 Inhibitors from Boesenbergia rotunda” (Nutrients, 2019)
